Data reported in US8906925B2, “Pyrido[4,3-B]indoles containing rigid moieties” (Medivation Technologies, Inc., priority 2008, dated 2014).

How the values were obtained:
C57Bl/6J mice = experiment: PCP-induced hyperactivity, open field test; format: in vivo, mouse; settings: p.o. 30 min prior to PCP (5.0 mg/kg i.p.), 90 min. test
Experimental: One exemplary model for testing the activity of one or more compounds described herein to treat and/or prevent and/or delay the onset and/or development of schizophrenia employs phencyclidine (PCP), which is administered to the animal (e.g., non-primate (rat) or primate (monkey)), resulting in dysfunctions similar to those seen in schizophrenic humans. See Jentsch et al., 1997, Science 277:953-955 and Piercey et al., 1988, Life Sci. 43(4):375-385). Standard experimental protocols may be employed in this or in other animal models. One protocol involves PCP-induced hyperactivity.
Male C57Bl/6J mice from Jackson Laboratories (Bar Harbor, Me.) were used. Mice were received at 6-weeks of age. Upon receipt, mice were assigned unique identification numbers (tail marked) and were group housed with 4 mice/cage in OPTIMICE ventilated cages. All animals remained housed in groups of four during the remainder of the study. All mice were acclimated to the colony room for at least two weeks prior to testing and were subsequently tested at an average age of 8 weeks of age. During the period of acclimation, mice were examined on a regular basis, handled, and weighed to assure adequate health and suitability. Animals were maintained on a 12 h/12 h light/dark cycle. The room temperature was maintained between 20 and 23° C. with a relative humidity maintained between 30% and 70%. Food and water were provided ad libitum for the duration of the study. In each test, animals were randomly assigned across treatment groups.
The following compounds were used for this study: 1) Compound Nos 83, 88, 90 (0.03, 0.1, 0.3, 1, 3, 10 & 30 mg/kg) was dissolved in 5% PEG-200 in sterile water and administered p.o. 30 min prior to PCP injection; 2) Clozapine (1.0 mg/kg) was dissolved in 10% DMSO and administered i.p. 30 min prior to phencyclidine (PCP) injection; 3) PCP (5.0 mg/kg) was dissolved in sterile water and administered i.p. immediately before the 60 min. test. All compounds were administered at a dose volume of 10 mL/kg.
The open filed (OF) test assesses locomotor behavior, i.e. to measure mouse locomotor activity at baseline and in response to pharmacological agents. The open field chambers are Plexiglas square chambers (27.3×27.3×20.3 cm; Med Associates Inc., St Albans, Vt.) surrounded by infrared photobeams (16×16×16) to measure horizontal and vertical activity. […] Distance traveled was measured from horizontal beam breaks as the mouse moved whereas rearing activity was measured from vertical beam breaks. […]
Data were analyzed by analysis of variance (ANOVA) followed by post-hoc comparisons with Fisher Tests when appropriate. Baseline activity was measured during the first 30 min. of the test prior to PCP injection. PCP-induced activity was measured during the 60 min. following PCP injection. […]

[1] = target: human dopamine D2L receptor (Homo sapiens, UniProt P14416); experiment: GTPγS functional assay, dopamine D2L (CHO-K1 membrane extracts); format: biochemical; design: host or cells: CHO-K1 co-expressing mitochondrial apoaequorin and Gα16; settings: for inhibition at 0.005 µM: antagonist concentration 5 nM; for inhibition at 0.05 µM: antagonist concentration 50 nM; for inhibition at 0.5 µM: antagonist concentration 500 nM; for inhibition at 5 µM: antagonist concentration 5000 nM; for inhibition at 15 µM: antagonist concentration 15000 nM
Chain of human dopamine D2L receptor (P14416 whole entry): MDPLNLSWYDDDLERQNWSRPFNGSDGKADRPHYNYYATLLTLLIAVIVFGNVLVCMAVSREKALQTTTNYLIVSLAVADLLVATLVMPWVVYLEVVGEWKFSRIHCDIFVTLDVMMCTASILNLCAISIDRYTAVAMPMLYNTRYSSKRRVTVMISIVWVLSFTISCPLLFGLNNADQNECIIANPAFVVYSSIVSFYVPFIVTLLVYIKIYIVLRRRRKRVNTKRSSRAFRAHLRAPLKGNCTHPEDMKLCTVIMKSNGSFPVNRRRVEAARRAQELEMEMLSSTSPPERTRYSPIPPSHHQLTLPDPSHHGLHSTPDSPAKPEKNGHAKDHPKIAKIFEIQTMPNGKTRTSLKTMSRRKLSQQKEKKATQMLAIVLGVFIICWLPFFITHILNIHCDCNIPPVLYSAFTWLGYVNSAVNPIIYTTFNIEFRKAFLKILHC
Description: To study the functional activity of compounds of the invention on the human recombinant dopamine D2L with Aequorin, GTPγS and cAMP functional assays and on the human recombinant serotonin 5-HT2A receptor with Aequorin, CHO-K1 cell lines expressing D2L or 5-HT2A recombinant receptor, mitochondrial apoaequorin and Gα16 were used for the Aequorin assay. CHO-K1 cell line expressing the recombinant D2L receptor was used for the cAMP assay and was amplified to prepare membranes used for the GTPγS assay.
GTPγS Assay Procedure: Assay buffer [20 mM HEPES pH 7.4; 100 mM NaCl, 10 μg/mL saponin, 30 mM MgCl2]; Membranes [Recombinant CHO-K1-D2L membrane extracts thawed on ice and diluted in assay buffer to give 1 mg/mL (10 μg/10 μL) and kept on ice]; GDP [diluted in assay buffer to give […] final concentration]; Beads [PVT-WGA (Amersham, RPNQ0001), diluted in assay buffer at 25 mg/mL (0.25 mg/10 μL)]; GTPγ35S [(PerkinElmer NEG030X), diluted in assay buffer to give 0.1 nM final concentration]; Ligand [Quinpirol (Tocris, 1061) as reference agonist and haloperidol (Tocris, 0931) as reference antagonist, diluted in assay buffer]. Membranes were mixed with GDP (volume:volume) and incubated for at least 15 min on ice. In parallel, GTPγ[^35S] was mixed with the beads (volume:volume) just before starting the reaction. For agonist testing, the following reagents are successively added in the wells of an Optiplate (Perkin Elmer): 50 μL of test or reference ligand, 20 μL of the membranes:GDP mix, 10 μL of assay buffer and 20 μL of the GTPγ[^35S]:beads mix. For antagonist testing, the following reagents were successively added in the wells of an Optiplate (Perkin Elmer): 50 μL of test or reference ligand, 20 μL of the membranes:GDP mix, and then after an incubation of 15 min at room temperature, 10 μL of reference agonist at historical EC80 concentration and 20 μL of the GTPγ[^35S]:beads mix. The plates were covered with a top seal, mixed on an orbital shaker for 2 min, and then incubated for 1 h at room temperature. Then the plates were centrifuged for 10 min at 2000 rpm, incubated at room temperature 1 h and counted for 1 min/well with a Perkin Elmer TopCount reader. Compounds were tested for antagonist activity at the human dopamine D2L receptor (FAST-0101G) at the following nanomolar concentrations, in duplicate: Antagonist (nM): 5, 15, 50, 150, 500, 1500, 5000, 15000.

[2] = antagonist concentration 150 nM
[3] = antagonist concentration 1500 nM

Row | Structure (SMILES) | Total Distance Traveled (center+periphery), ANOVA (C57Bl/6J mice) | inhibition at 0.005 µM [1] | inhibition at […] ([1]; antagonist concentration 15 nM) | inhibition at 0.05 µM [1] | inhibition at […] [1, 2] | inhibition at 0.5 µM [1] | inhibition at […] [1, 3] | inhibition at 5 µM [1] | inhibition at 15 µM [1] | Total Rearing (center+periphery), ANOVA (C57Bl/6J mice)
1 | C/C(=C\n1c2c(c3cc(Cl)ccc31)CN(C)CC2)c1ccncc1 [Compound 90, (E)-8-chloro-2,3,4,5-tetrahydro-2-methyl-5-(2-(pyridin-4-yl)prop-1-enyl)-1H-pyrido[4,3-b]indole] | significant treatment effect | 59% | 101% | 106% | 109% | 109% | 116% | 112% | 116% | –
2 | C/C(=C\n1c2c(c3cc(C)ccc31)CN(C)CC2)c1ccncc1 [Compound 88, (E)-2,3,4,5-tetrahydro-2,8-dimethyl-5-(2-(pyridin-4-yl)prop-1-enyl)-1H-pyrido[4,3-b]indole] | significant treatment effect | – | – | – | – | – | – | – | – | –
3 | C/C(=C\n1c2c(c3cc(Cl)ccc31)CN(C)CC2)c1ccc(F)cc1 [Compound 83, (E)-8-chloro-5-(2-(4-fluorophenyl)prop-1-enyl)-2,3,4,5-tetrahydro-2-methyl-1H-pyrido[4,3-b]indole] | significant treatment effect | 51.8% | 90% | 104% | 109% | 118% | 113% | 111% | 105% | significant treatment effect
